{"source": "patent US20240335395A1", "about": "“COMPOSITIONS AND METHODS FOR PREVENTING AND/OR TREATING DISEASE ASSOCIATED WITH IL-23 EXPRESSION” (ALLSPIM, priority 2021, published 2024)", "key": {"IL-17 [1]": {"test_system": "IL-17", "test": "IL-17 gene expression in RA-patient synovial cells (RT-qPCR)", "format": "cell-based, human", "settings": "2 h", "procedure": "Synovial fluid was freshly collected from 20 patients with rheumatoid arthritis (RA) by arthrocentesis. At two hours after treatment or not with 2,4-D, RA-patient synovial cells were directly lysed using TRIzol reagent (Invitrogen, USA) followed by RNA extraction according to the manufacturer's protocol. Finally, RNA was dissolved in 10 μL DEPC-treated water, quantified on a NanoDrop 2000 spectrophotometer (Thermo Scientific Inc., USA), and reverse-transcribed using the Super Script III First-Strand Synthesis System for RT-PCR kit (Thermo Scientific, USA) according to the manufacturer's protocol. PCR was performed in duplicate using SYBR Green qPCR master mix (Takara Biomedical Technology Co., Ltd, Dalian, China) on an ABI 7500 Real-Time PCR System (Thermo, USA). The cycling program was as follows: denaturation at 95° C. for 15 s, 40 cycles of 95° C. for 15 s and extension at 60° C. for 60 s, followed by melt curve generation. The ΔΔCT method was used to quantify relative mRNA levels as described in Example 1 above. The primer sequences specific for human IL-17 genes (hu-IL-17 Forward: 5′-[…]-3′; hu-IL-17 Reverse: 5′-GGCACTTTGCCTCCCAGAT-3′) (SEQ ID NOs 8 and 9, respectively) and IL-23 (see Example 1, above) were used."}, "IL-17 [2]": {"test_system": "IL-17", "test": "IL-17A production in anti-CD3/CD28-stimulated mouse spleen cells (ELISA)", "format": "cell-based", "settings": "for production and release of IL-17 in supernatant: 72 h", "procedure": "Briefly, before the experiment, 48-well plates were coated with 150 μl/well hamster anti-mouse CD3 (Clone 145-2C11, NA/LE, BD PHM, USA) at a concentration of 10 μg/ml and incubated overnight at 4° C. The next day, a C57BL/6 mouse was euthanized by cervical dislocation, and its spleen was aseptically dissected using sterile techniques. The harvested spleen was placed in a small Petri dish containing 10 ml of ice-cold PBS/FBS, ground using 2 frosted microscope slides, and filtered through a piece of 40 μm nylon material to yield a single cell suspension. Thereafter, the spleen cell suspension was carefully dispensed onto mouse lymphocyte separation medium (TBD Science Inc, Tianjin, China) and the lymphocytes were collected after density gradient centrifugation. After washing and cell counting, cell density was adjusted to 1 million cells/mL with RPMI 1640 (Gibco) plus 10% FCS and 1 μg/mL anti-mouse CD28 (BD PHM). […] After stimulation for 72 hours with anti-CD3 and anti-CD28 monoclonal antibodies, culture supernatants were collected and IL-17A measured with an IL-17A mouse ELISA kit (Thermo Fisher Scientific Inc.) according to the manufacturer's instructions. Cell count and viability were also evaluated with 0.4% trypan blue (Thermo Fisher Scientific Inc.) staining."}, "IL-23 gene (IL-23p19)": {"test_system": "IL-23 gene (IL-23p19)", "test": "IL-23 gene expression (RT-qPCR) in LPS-stimulated THP-1 cell culture", "format": "cell-based, human", "settings": "THP-1, LPS 10 ng/ml, 2 h", "procedure": "The THP-1 cell line (TIB-202) was obtained from the American Type Culture Collection (ATCC, USA), grown in RPMI 1640 culture medium (Gibco) supplemented with 10% fetal bovine serum (Gibco, UK), 50 U/mL penicillin-streptomycin (Gibco), and 0.05 mM 2-Mercaptoethanol (Gibco). Cultured cells were plated into culture plates in appropriate volumes with a cell density of 500,000 cells/mL.\nAt two hours after stimulation with LPS (10 ng/ml) in the presence or not of 2,4-D at increasing concentrations, THP-1 cells from each experimental condition were directly lysed using TRIzol reagent (Invitrogen, USA) followed by RNA extraction according to the manufacturer's instructions. Finally, RNA was dissolved in 10 μL diethyl pyrocarbonate (DEPC)-treated water, quantified on a NanoDrop 2000 spectrophotometer (Thermo Scientific Inc., USA), and reverse-transcribed using the Super Script III First-Strand Synthesis System for RT-PCR kit (Thermo Scientific, USA) according to the manufacturer's instructions.\nPCR was performed in duplicate using SYBR Green qPCR master mix (Takara Biomedical Technology Co., Ltd, Dalian, China) on an ABI 7500 Real-Time PCR System (Thermo, USA). […] The ΔΔCT method was used to quantify relative mRNA levels as described in User Bulletin #2 for the ABI PRISM 7700 Sequence Detection System (Applied Biosystems, 2001). […]"}}, "data": [{"smiles": "COc1cc(O)c(OC)c(O)c1C(=O)/C=C/c1ccccc1", "note": "[2,4-D, 2′,4′-dihydroxy-3′,6′-dimethoxychalcone]", "values": [{"measurement": "decrease of IL-17 expression", "setting": "IL-17 [1]; 1 μg/ml", "value": 23, "unit": "fold"}, {"measurement": "inhibition of IL-17 expression", "setting": "IL-17 [1]; 5 μg/ml", "value": 60, "unit": "fold"}, {"measurement": "production and release of IL-17 in supernatant", "setting": "IL-17 [2]; 1 μg/ml", "value": "significantly suppressed"}, {"measurement": "production and release of IL-17 in supernatant", "setting": "IL-17 [2]; 5 μg/ml", "value": "significantly suppressed"}, {"measurement": "suppression of IL-17 on adding recombinant mouse IL-23", "setting": "IL-17 [2]; recombinant mouse IL-23 5 ng/ml", "value": "completely reversed"}, {"measurement": "IL-23 gene expression", "setting": "IL-23 gene (IL-23p19)", "value": "strongly inhibited"}]}]}
